Experimental data taken from ChEMBL document CHEMBL1201862, “PubChem BioAssay data set” (2004).
Calls of active or inactive are those of the source.

Tests used:
Melanocortin receptor 4 = Melanocortin receptor 4 (Homo sapiens, UniProt P32245); experiment: inhibitors of MC4R cAMP signaling – cell-based, TR-FRET, biased antagonists, dose response (AID 602298); assay type: functional;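 note: antagonist potency against agonist-stimulated cAMP production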
[1] = cAMP pathway inhibition in counterscreen cell line – TR-FRET cAMP detection, counter-screen for MC4R biased antagonist project, dose response (AID 602305); assay type: functional, cell-based;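 note: U2OS cells stimulated with forskolin near its EC80 as the cAMP inducer; potency is for inhibition of forskolin-stimulated cAMP signaling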
[2] = molecular target: Heat shock protein HSP 90-alpha (Homo sapiens, UniProt P07900); assay type: functional, organism-based
[3] = molecular target: Photoreceptor-specific nuclear receptor (Homo sapiens, UniProt Q9Y5X4); assay type: functional, cell-based;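 note: CHO-S cells with Gal4-NCOR and VP16-NR2E3 two-hybrid luciferase reporter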
Sequence of Photoreceptor-specific nuclear receptor (Q9Y5X4 whole entry, the tested form may be a part): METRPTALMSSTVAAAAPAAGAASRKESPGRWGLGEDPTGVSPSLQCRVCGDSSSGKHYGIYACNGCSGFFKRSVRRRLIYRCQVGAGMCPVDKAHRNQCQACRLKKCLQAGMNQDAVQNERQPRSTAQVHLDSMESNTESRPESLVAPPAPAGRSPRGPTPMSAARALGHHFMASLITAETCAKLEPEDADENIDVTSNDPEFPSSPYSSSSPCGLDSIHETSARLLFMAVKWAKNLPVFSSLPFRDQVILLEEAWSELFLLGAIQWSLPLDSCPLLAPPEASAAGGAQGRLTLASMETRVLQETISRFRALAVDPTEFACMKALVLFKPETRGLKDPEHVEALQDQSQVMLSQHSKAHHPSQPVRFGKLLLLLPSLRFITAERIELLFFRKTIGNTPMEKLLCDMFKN

Prothrombin = Prothrombin (Bos taurus, UniProt P00735); experiment: thrombin protease inhibitors – biochemical, fluorescence polarization, uHTS hits, dose response (AID 602369); assay type: functional
[4] = molecular target: 26S proteasome non-ATPase regulatory subunit 14 (Homo sapiens, UniProt O00487); experiment: inhibition of proteasome subunit RPN11 – biochemical, fluorescence polarization, uHTS hits, confirmation (AID 602368); assay type: functional
Sequence of 26S proteasome non-ATPase regulatory subunit 14 (O00487 whole entry): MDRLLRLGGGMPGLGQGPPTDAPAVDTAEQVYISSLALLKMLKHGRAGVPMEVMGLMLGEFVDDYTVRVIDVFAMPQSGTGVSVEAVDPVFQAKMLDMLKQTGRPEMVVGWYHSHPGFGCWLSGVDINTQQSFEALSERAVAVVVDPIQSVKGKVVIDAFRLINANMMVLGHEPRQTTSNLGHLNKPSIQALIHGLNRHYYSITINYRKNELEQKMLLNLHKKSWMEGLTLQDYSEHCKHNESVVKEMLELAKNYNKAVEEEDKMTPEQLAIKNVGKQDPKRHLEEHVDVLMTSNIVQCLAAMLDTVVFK

[5] = molecular target: 72 kDa type IV collagenase (Homo sapiens, UniProt P08253); experiment: Dose Response validation of uHTS RPN11 inhibitor hits using a MMP-2 Fluorescence assay.; assay type: functional
Sequence of 72 kDa type IV collagenase (P08253 whole entry): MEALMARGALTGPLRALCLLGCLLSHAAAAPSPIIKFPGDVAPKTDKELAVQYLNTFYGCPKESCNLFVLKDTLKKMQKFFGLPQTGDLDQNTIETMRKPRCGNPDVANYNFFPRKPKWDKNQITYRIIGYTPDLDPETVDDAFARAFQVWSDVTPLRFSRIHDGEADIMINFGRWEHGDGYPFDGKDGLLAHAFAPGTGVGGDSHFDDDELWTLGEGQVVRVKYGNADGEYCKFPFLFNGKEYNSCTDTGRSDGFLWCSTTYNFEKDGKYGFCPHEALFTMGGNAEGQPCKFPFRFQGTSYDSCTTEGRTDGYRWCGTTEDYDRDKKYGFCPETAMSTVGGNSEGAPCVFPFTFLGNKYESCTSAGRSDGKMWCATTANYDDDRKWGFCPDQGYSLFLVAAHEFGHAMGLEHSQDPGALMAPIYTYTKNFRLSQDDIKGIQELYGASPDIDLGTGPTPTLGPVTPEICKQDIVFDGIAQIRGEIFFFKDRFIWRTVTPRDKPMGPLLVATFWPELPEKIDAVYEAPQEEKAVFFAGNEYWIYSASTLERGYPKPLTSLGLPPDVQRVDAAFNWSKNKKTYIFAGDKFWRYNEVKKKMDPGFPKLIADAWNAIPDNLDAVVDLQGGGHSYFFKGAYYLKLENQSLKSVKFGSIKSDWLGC

Interleukin-8 [6] = molecular target: T1, Interleukin-8 (Homo sapiens, UniProt P10145); experiment: Dose Response confirmation of uHTS small molecule hits for cystic fibrosis induced NFkb Inhibitors in a TNFa-induced IL8 counterscreen.; assay type: functional; details: read-out: IC50_Mean
T1 sequence (P10145 whole entry): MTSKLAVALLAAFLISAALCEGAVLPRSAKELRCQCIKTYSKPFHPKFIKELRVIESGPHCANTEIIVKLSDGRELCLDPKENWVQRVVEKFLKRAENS

Interleukin-8 [7] = molecular target: T1, Interleukin-8; experiment: Dose Response confirmation of uHTS small molecule hits for cystic fibrosis induced NFkb Inhibitors in a PAF-induced IL8 counterscreen.; assay type: functional; details: read-out: IC50_Mean
Cysteine protease ATG4B = molecular target: T2, Cysteine protease ATG4B (Homo sapiens, UniProt Q9Y4P1); assay type: functional;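 note: Fluorescence-based dose-response confirmation assay measuring inhibition of ATG4B activity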
T2 sequence (Q9Y4P1 whole entry): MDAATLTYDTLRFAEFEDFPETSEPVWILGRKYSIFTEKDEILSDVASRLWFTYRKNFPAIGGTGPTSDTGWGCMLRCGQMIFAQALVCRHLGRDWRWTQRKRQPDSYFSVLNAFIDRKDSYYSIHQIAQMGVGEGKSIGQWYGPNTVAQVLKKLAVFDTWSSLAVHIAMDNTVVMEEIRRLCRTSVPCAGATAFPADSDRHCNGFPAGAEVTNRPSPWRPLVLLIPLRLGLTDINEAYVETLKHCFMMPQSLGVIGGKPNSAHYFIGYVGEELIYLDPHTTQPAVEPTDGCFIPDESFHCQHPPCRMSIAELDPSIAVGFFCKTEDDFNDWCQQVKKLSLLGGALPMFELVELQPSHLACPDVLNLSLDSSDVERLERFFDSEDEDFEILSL

Streptokinase A = molecular target: T3, Streptokinase A (Streptococcus pyogenes serotype M1, UniProt P10520); experiment: viability-normalized secreted streptokinase activity reduction – plasminogen activation absorbance, OD405, dose response (AID 1914); assay type: functional, Streptococcus pyogenes M1 GAS;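 note: secreted streptokinase activity via plasminogen activation per viability signal from cell pellet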
T3 sequence (P10520 whole entry): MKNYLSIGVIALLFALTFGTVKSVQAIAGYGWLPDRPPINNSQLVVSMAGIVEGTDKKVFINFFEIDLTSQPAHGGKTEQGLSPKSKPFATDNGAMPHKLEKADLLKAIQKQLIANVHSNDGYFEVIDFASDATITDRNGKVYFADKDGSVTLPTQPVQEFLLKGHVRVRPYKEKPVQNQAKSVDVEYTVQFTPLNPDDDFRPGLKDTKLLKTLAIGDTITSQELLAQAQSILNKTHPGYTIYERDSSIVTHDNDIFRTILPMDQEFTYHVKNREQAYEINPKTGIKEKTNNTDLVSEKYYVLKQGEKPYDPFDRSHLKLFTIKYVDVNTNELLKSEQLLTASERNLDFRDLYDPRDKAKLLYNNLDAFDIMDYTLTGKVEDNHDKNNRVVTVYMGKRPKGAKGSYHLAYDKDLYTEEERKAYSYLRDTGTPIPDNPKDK

[8] = NIH-3T3 fibroblast cytotoxicity, dose response, cytotoxicity control, cell-based, fluorescence, Alamar Blue, secondary assay (AID 2327); assay type: functional;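 note: NIH-3T3 mouse fibroblasts cultured with fluconazole at 8 µg/mL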
[9] = molecular target: T4, Corticotropin-releasing factor receptor 2/Corticotropin-releasing factor-binding protein (Homo sapiens, UniProt P24387+Q13324); experiment: Dose Response confirmation of uHTS hits for small molecule antagonists of the CRF-binding protein and CRF-R2 receptor complex.; assay type: functional; details: read-out: IC50_Mean
T4 sequence (Q13324 whole entry): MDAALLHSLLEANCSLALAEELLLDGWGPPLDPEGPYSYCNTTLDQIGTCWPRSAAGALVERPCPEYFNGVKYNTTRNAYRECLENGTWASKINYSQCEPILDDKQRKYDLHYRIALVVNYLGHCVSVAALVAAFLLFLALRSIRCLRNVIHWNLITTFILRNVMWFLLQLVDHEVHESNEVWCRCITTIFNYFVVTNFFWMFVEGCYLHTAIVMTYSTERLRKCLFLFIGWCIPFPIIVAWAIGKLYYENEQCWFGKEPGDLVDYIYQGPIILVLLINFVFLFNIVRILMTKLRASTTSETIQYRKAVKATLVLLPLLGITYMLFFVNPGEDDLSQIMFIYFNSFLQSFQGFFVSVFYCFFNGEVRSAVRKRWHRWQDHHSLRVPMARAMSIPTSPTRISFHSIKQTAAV
T4 sequence (P24387 whole entry): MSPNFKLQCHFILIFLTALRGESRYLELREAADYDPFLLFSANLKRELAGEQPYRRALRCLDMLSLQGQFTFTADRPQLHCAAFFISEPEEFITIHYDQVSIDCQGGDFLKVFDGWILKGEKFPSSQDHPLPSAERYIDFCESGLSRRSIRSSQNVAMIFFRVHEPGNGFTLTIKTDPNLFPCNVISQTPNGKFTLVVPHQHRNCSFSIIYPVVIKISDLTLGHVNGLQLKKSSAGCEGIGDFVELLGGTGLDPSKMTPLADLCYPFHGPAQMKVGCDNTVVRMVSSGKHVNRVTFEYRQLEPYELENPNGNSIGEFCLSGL

[10] = molecular target: T4, Corticotropin-releasing factor receptor 2/Corticotropin-releasing factor-binding protein; experiment: activators of CRF receptor 2 with binding protein – uHTS hits, confirmation (AID 602473); assay type: functional; details: read-out: EC50_Mean
Streptococcus = experiment: GAS UMAA2166 growth inhibition – luminescence, BacTiterGlo, counter-screen for streptokinase expression inhibitor project, dose response (AID 1915); assay type: functional, organism-based;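 note: potency for reduction of bacterial viability or growth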
[11] = fluconazole-exposed Candida albicans growth modulators – fluorescence, retest, confirmation (AID 2467); assay type: functional, cell-based
[12] = blockers of CRF-binding protein–CRF-R2 complex – cell-based, uHTS hits, 384-well, dose response (AID 651639); assay type: functional, Homo sapiens; details: read-out: IC50_Mean
[13] = system: Streptococcus sp. 'group A'; experiment: Streptococcus pyogenes SK(-)GAS viability under kanamycin – luminescence, BacTiterGlo, confirmation, counter-screen for streptokinase expression inhibitor project, dose response (AID 1900); assay type: functional, organism-based
Phospholipase A2 = Phospholipase A2 (Homo sapiens, UniProt P04054); assay type: functional;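 note: confirmatory dose-response counterscreen on phospholipase A2, testing hits that came from an ultra-high-throughput screen for ATG4B inhibitors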
Sequence of Phospholipase A2 (P04054 whole entry, the tested form may be a part): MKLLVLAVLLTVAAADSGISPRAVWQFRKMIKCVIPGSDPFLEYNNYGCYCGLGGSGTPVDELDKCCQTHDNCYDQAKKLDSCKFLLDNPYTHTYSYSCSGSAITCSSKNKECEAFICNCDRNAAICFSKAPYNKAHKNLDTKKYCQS

[14] = molecular target: Disintegrin and metalloproteinase domain-containing protein 17 (Homo sapiens, UniProt P78536); experiment: inhibition of ADAM17 substrate cleavage – biochemical, quenched FRET substrate, counter-screen for ADAM10 exosite inhibitor project, dose response (AID 743253)
Sequence of Disintegrin and metalloproteinase domain-containing protein 17 (P78536 whole entry, the tested form may be a part): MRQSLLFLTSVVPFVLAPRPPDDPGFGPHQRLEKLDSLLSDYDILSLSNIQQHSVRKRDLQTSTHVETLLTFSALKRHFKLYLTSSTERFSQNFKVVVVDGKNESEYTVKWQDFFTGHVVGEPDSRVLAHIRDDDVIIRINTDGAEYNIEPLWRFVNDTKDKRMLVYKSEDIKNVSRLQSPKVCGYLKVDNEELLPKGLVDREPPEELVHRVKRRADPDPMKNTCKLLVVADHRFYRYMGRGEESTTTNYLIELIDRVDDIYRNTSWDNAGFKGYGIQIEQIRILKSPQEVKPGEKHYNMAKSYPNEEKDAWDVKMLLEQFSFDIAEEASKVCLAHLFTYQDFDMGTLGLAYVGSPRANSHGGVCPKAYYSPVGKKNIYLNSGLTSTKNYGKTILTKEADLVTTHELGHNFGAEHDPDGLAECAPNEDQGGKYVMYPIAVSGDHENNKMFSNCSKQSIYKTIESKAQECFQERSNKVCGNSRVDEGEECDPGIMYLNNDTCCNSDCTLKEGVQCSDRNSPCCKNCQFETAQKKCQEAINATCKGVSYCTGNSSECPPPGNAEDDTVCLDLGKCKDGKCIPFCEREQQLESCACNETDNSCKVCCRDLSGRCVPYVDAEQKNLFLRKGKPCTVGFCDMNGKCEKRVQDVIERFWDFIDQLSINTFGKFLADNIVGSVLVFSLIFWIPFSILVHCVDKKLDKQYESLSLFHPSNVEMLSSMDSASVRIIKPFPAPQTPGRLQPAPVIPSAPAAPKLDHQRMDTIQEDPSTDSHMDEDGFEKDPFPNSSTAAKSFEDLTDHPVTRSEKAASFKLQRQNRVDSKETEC

[15] = molecular target: T5, Tyrosine-protein phosphatase non-receptor type 7 (Homo sapiens, UniProt P35236); experiment: HePTP tyrosine phosphatase activity blockers – biochemical, absorbance, leukemia target, primary screen (AID 521); assay type: functional
T5 sequence (P35236 whole entry): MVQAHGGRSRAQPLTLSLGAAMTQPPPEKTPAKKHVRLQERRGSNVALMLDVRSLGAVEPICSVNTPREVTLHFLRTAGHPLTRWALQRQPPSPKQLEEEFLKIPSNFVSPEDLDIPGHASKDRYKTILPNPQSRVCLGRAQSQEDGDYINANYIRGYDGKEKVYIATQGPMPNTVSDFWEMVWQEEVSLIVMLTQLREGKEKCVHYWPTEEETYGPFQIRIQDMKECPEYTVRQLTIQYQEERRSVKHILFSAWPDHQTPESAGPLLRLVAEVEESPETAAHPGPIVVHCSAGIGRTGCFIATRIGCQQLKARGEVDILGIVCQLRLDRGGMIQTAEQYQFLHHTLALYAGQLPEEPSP

Sequence of Melanocortin receptor 4 (P32245 whole entry): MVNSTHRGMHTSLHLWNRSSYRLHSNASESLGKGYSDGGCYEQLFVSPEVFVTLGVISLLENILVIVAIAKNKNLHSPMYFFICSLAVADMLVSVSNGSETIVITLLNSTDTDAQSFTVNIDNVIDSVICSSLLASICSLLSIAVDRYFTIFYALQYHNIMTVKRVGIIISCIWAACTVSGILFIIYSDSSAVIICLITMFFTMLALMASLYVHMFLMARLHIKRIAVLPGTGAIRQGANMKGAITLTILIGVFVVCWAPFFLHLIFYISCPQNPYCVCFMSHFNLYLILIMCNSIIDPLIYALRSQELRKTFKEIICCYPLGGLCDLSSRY

Cc1ncn(-c2ccc(C(=O)Oc3ccccc3)cn2)n1
IC50 (Melanocortin receptor 4): > 64.5 µM (inactive)
IC50 [1]: > 64.5 µM (inactive)

CSCCC(NC(=O)c1ccc([N+](=O)[O-])cc1Cl)C(=O)OC(C)C(=O)NCc1ccco1 (stereo not drawn)
IC50 (Melanocortin receptor 4): > 64.6 µM (inactive)
IC50 [1]: 47.4 µM (inactive)

COc1ccc(/C=C/C(=O)c2cc(Br)ccc(=O)c2O)cc1
AC50 [2]: 4.22 µM (active)

Cc1nc(NC(=O)c2c(-c3ccccc3Cl)noc2C)sc1C
IC50 [3]: 4.19 µM (active)

CCOC(=O)C1=C(Nc2ccc(OC)cc2)S/C(=C\c2ccc(-c3ccccc3C(=O)O)o2)C1=O
IC50 (Prothrombin): 13.1 µM (active)
IC50 [4]: 17.8 µM (active)
IC50 [5]: > 100 µM (inactive)

O=C(CC12CC3CC(CC(C3)C1)C2)Nc1nncs1
IC50 (Interleukin-8 [6]): 3.19 µM (active)
IC50 (Interleukin-8 [7]): 9.42 µM (active)

CC(C)C(Sc1nc(-c2ccccc2)cc(-c2ccccc2)c1C#N)C(=O)O (stereo not drawn)
IC50 (Cysteine protease ATG4B): 11.3 µM (active)
EC50 (Streptokinase A): 10.1 µM (active)
EC50 [8]: 26.8 µM (active)
IC50 [9]: 6.76 µM (active)
EC50 [10]: 35.7 µM (active)
EC50 (Streptococcus): 9.19 µM (active)
EC50 [11]: 2.61 µM (active)
IC50 [12]: > 20 µM (inactive)
EC50 [13]: 7.77 µM (active)
IC50 (Phospholipase A2): 9.87 µM (active)

CCc1ccccc1OCC(=O)Nc1ccc(N2CCCC2)cc1C
IC50 (Prothrombin): 9.96 µM (active)
IC50 [4]: 46.2 µM (active)
IC50 [5]: 89 µM (active)

COc1ccc(-c2n[nH]c(C(F)(F)F)c2-c2cc3ccccc3o2)c(O)c1
IC50 (Cysteine protease ATG4B): 9.42 µM (active)
IC50 [14]: > 69.5 µM (inactive)
IC50 [15]: > 100 µM (not active)
IC50 (Phospholipase A2): 7.64 µM (active)
